Here are results for 7 substances from patent US20140227238A1, “PEPTIDES HAVING PROTECTIVE EFFECT TOWARDS THE INFLAMMATORY ACTIVITY OF PEPTIDE 31-43 OF A-GLIADIN IN CELIAC DISEASE” (CRA-CONSIGLIO PER LA RICERCA E LA, priority 2011, published 2014).

Entries after “also recorded” stand apart in the source; their conditions may differ.

Assay [1] concerns K562(S) cells. The experiment in a line: K562(S) cell agglutination test. The format is cell-based, human. The following applies: for (Δ) O.D. (protecting activity): incubated together with p31-43; for protecting activity towards p31-43 induced agglutination of K562 cells: with p31-43. The protocol:
K562(S) cells, an immature subclone of a cell line from a blastic phase chronic myelogenous leukemia patient, are cultured under 5% CO2 atmosphere at 37° C. in RPMI (Gibco, supplied by Invitrogen, Carlsbad, Calif., USA) containing 4.5 g/L glucose, 2 mM L-glutamine, 50 U/ml penicillin, […] streptomycin, 1% essential amino acids, 1% HEPES and 10% bovine fetal serum (FBS).
K562(S) cells to be used for agglutination test have been collected by centrifugation and washed two times with calcium and magnesium free PBS. Then cells have been resuspended at concentration of 10^8 cells/ml in PBS; […] of cell suspension added to each well of a 96 well plate. The peptide has been added at a concentration of 10 μg/ml. The final total volume has been 100 μl. Cell suspension has been incubated at room temp. for 30 minutes. Agglutination rate has been measured using a 96 well plate reader equipped with stirrer. Turbidity of cellular suspension has been measured at 600 nm (OD600 nm) under continuous stirring at 0 and 30 min times. The difference of T0 and T30 readings has been taken as agglutination rate (CV).

In assay [2] the test system is K562(S) cells. The following applies: earlier studies (6-9); cited from earlier work.
For a further assay, the system named is ICAM-1 in T84 cells. The assay is described as follows: Western blotting for expression of ICAM-1 in T84 cells. Particulars: 24 hours; for ICAM-1 level in T84 cells: peptide alone, 20 μg/ml, compared to medium only; for ICAM-1 level in T84 cells exposed to p31-43: peptide together with p31-43, 20 μg/ml each. In kind it is cell-based, human. As to the method: T84 human colonic carcinoma cells have been cultured under 5% CO2 atmosphere at 37° C. in 50% DMEM, (Gibco, supplied by Invitrogen, Carlsbad, Calif., USA) and 50% […] containing 4.5 g/L glucose, 2 mM L-glutamine, 50 U/ml penicillin, […] streptomycin, 1% essential amino acids, 1% HEPES and 10% bovine fetal serum (FBS).
T84 cells have been treated with p31-43 peptide in absence and presence of pRPQ, pDAV, p7mer (at peptide concentration of 20 μg/ml) and culture medium only (like negative control) for 24 hours at 37° C.
For WB analysis, T84 cells have been seeded at a concentration of 1×10^5 cells/ml in 12 well plate and shortly treated before confluence was reached. Treatment has been carried out using 20 μg/ml of medium for each peptide (p31-43, p7mer, pDAV, pRPQ) for 24 hours. In order the protecting activity of pDAV and pRPQ towards toxic effect of p31-43 to be tested, a pre-incubation for 3 hours using these peptides before the exposure to p31-43, has been performed. After incubation, cells have been treated with buffer containing 150 mM NaCl, 0.05% sodium dodecyl sulfate (SDS) and 1% Triton X-100. This mixture then has been centrifuged for 5 minutes at 4° C. Protein concentration has been measured according to […]. SDS-(Polyacryl amide Gel Electrophoresis) has been carried out using 4% and 7.5% gel. […] of protein have been loaded for each gel run. Then the proteins have been transferred on nitrocellulose membrane (Biorad). Membranes have been incubated overnight with mice anti-ICAM-1 monoclonal Abs (Abcam, Cambridge, UK) at 1:250 dilution. Successively, after washings, said membrane have been incubated with secondary antibody (peroxidase HRP:3000; Biorad). Membrane occurring proteins are detected using chemiluminescent detection kit (Biorad), according to producer instructions. Blot intensity of protein bands has been evaluated by Biorad ChemiDoc densitometer.
On the technique in general: Immunoblotting shows a protein as a band on a membrane.

In assay [3] the test system is intestinal biopsies from celiac patients. The assay is described as follows: Organ culture of celiac duodenal mucosa with gliadin PT digest, immunolocalization of immune activation labels (CD25+, ICAM1, HLA-DR). The format is cell-based, human. As to the method: (§1) Duodenal mucosa samples have been treated in vitro for 3 and 24 hours using medium, gliadin PT digest (500 μg/mL), p31-43 (20 μg/ml), pRPQ (10 μg/ml). P7mer and pTPO (10 μg/ml) have been used in all the experiments as control peptides.
(§2) 4 μm thick sections of frozen biopsy samples from celiac patients have been fixed in acetone for 10 minutes. Then sections have been incubated for 2 hours at room temp. with following antibodies: anti-phospho-tyrosine PY99 mAb (1:80, IgG2b; Saint Cruz Biotechnology, Saint Cruz, Calif.), phospho-p42/p44 (1:500, polyclonal Ig; Cell Technology Beverly, USA), ICAM1 (1:500, Abcam, Cambridge, BUT, USA), HLA-DR (1:500, Abcam, Cambridge, BUT, USA). Antigene expression and distribution thereof within biopsy sample have been visualized by indirect immunofluorescence as previously described. Monoclonal isotype control (IgG1 and IgG2) has been used as control. Samples have been analyzed using Zeiss LSM510 confocal laser scanning unit (Carl Zeiss, Germany).

Assay [4] relates to biopsies from celiac subjects. The assay is described as follows: Organ culture of celiac duodenal mucosa with p31-43, immunolocalization of Py99 and phospho-p42/p44. The format is cell-based, human. The protocol:
as §1, §2

The next assay has as its system TG2. The assay is described as follows: In situ determination of TG2 activity in duodenal mucosa from celiac patients. Particulars: co-incubation with p31-43, biopsies from celiac subjects. In kind it is cell-based, human. As to the method: as §1
7 μm diameter sections have been collected on slide, pre-incubated with buffer (965 ml of 100 mmol/L Tris-HCl, pH 7.4, […] of 200 mmol/L CaCl2) for 15 minutes, and then pre-incubated with same buffer added with 10 ml of 10 mmol/L of biotinylated mono-dansylcadaverine (bio-MDC) (Molecular Probes, Leiden, The Netherlands) for 1 hour at room temp. The reaction is stopped using 25 mmol/L of EDTA for 5 minutes, then sections have been fixed in 4% paraformaldeide for 10 minutes. Labelled substrate incorporation has been visualized by incubation with streptavidin-conjugated RPE (1:50; Dako) for 30 minutes. Sections have been visualized fluorescently using Axioxop Zeiss 2 Plus micropurpose (Zeiss, Jena, Germany).

The mark [5] stands for this setting: 10 μg/ml, difference of O.D at 600 nm at 0 and 30 minutes ×100, K562(S) cells.
[6] abbreviates: 500 μg/ml gliadin PT digest, 10 μg/ml peptide.
The mark [7] stands for this setting: p31-43 20 μg/ml, peptide 10 μg/ml.

With “QQPQDAVQPF (SEQ ID NO: 1) (mutated omega-secalin peptide) [pDAV, decapeptide identified earlier in wheat peptic-triptic digest (WO9727217)]”, in the assay with K562(S) cells [1] (setting [5]), the “(Δ) O.D. (protecting activity)” value was −12 ± 1.9. Moreover, the “protecting activity towards p31-43 induced agglutination of K562 cells” value with K562(S) cells [1] was “prevent p31-43 induced agglutination”. The “prevention of agglutination of K562(S) cells by gliadin peptides” value with K562(S) cells [2] is “suitable to prevent the agglutination of K562(S) cells by gliadin peptides”. Moreover, in the assay with ICAM-1 in T84 cells, the “ICAM-1 level in T84 cells” value is on record as “No meaningful increase” and the “ICAM-1 level in T84 cells exposed to p31-43” value (“ICAM-1 level … to p31-43” below) is given as “ICAM-1 levels similar to cells exposed only to culture medium”.
As for “QQPQGGGQPF (SEQ ID NO: 13) (peptide corresponding to SEQ ID NO4 sequence wherein X is three G) [pGGG]”, the “(Δ) O.D. (protecting activity)” value in the assay on K562(S) cells [1] (setting [5]) was −7.9 ± 1.4. For the same substance, the “protecting activity towards p31-43 induced agglutination of K562 cells” value with K562(S) cells [1] is reported as “displayed a protecting activity”.
Consider “QQPQQPF (SEQ ID NO: 3) (toxic gliadin peptide from aa 139 to aa 145 of omega-gliadin sequence having accession number AAT74547) [p7mer, 7mer peptide shared by pDAV and pRPQ, known to be toxic in CD, reference compound]”, for which, in the assay with K562(S) cells [1] (setting [5]), the “(Δ) O.D. (protecting activity)” value stood at 1.5 ± 1.1. Besides, in the assay on K562(S) cells [1] (peptide alone), the “agglutinant activity towards K562 cells” value was “displays also agglutinant activity”. Besides, the “(Δ) O.D. (agglutinating activity)” value in the assay on K562(S) cells [1] (peptide alone, 10 μg/ml, difference of O.D at 600 nm at 0 and 30 minutes ×100, K562(S) cells) stood at 1.0 ± 0.3. For the same substance, the “protecting activity towards p31-43 induced agglutination of K562 cells” value with K562(S) cells [1] is “does not display any protecting effect”. In addition, the entries for the “ICAM-1 level in T84 cells” value with ICAM-1 in T84 cells and in the assay on ICAM-1 in T84 cells (listed as 7mer) were “increases ICAM-1 intracellular levels” and “poor increase”, respectively. Moreover, the “ICAM-1 level … to p31-43” value is on record as “does not exert any anti-inflammatory effect” in the assay on ICAM-1 in T84 cells and “no meaningful decrease” in the assay on ICAM-1 in T84 cells (listed as 7mer).
As for “QQPQYYYQPF (SEQ ID NO: 14) (peptide corresponding to SEQ ID No4 sequence wherein X is three Y) [pYYY]”, in the assay with K562(S) cells [1] (setting [5]), the “(Δ) O.D. (protecting activity)” value is −7 ± 2.5. Besides, the “protecting activity towards p31-43 induced agglutination of K562 cells” value in the assay with K562(S) cells [1] is reported as “little higher protecting activity than pGGG”.
With “QQPQWQPF (SEQ ID NO: 15) (peptide corresponding to SEQ ID NO4 sequence wherein X is W) [pW]”, in the assay on K562(S) cells [1] (setting [5]), the “(Δ) O.D. (protecting activity)” value was −9.1 ± 2.3.
On to “LDPLIRGILLARPAKL QV (SEQ ID NO: 16) (LDPLIRGILLARPAKLQV; control irrilevant peptide) [TPO control peptide, control irrelevant peptide, reference compound]”, for which the “protecting effect against the activation induced by gliadin” value in assay [3] (duodenal biopsies) was “lacking of any protecting effect”. Besides, the “protecting effect against the activation induced by p31-43” value in assay [4] (duodenal biopsies) is recorded as “lacking of any protecting effect”.
“QQPQRPQQPF (SEQ ID NO: 2) (peptide corresponding ro omega-secalin from aa 218 to aa 227 codified by the sequence deposited at NCBI with accession number FJ823438) [pRPQ]”: in the assay on TG2, the “p31-43-induced TG2 activity” value is given as “completely inhibited”. Also, the “p31-43-induced TG2 activity” value with TG2 (listed as RPQ peptide) is given as “meaningfully prevents”. In addition, in assay [3] (setting [6]), the “gliadin induced increase of HLA-DR expression in mucosa” value is given as “meaningfully prevents; also recorded: suitable to control”, the “gliadin induced increase of ICAM1 expression in mucosa” value is reported as “meaningfully prevents; also recorded: suitable to control” and the “gliadin induced increase of T CD25+ cells within lamina propria” value is on record as “suitable to control”. In assay [3] (peptide alone, duodenal biopsies from both celiac and healthy control subjects, data not shown), the “mucosa immunity stimulating activity” value is given as “lacking in mucosa immunity stimulating activity”. Further, in the assay with K562(S) cells [1] (setting [5]), the “(Δ) O.D. (protecting activity)” value is listed as −9.8 ± 1.7. The “protecting activity towards p31-43 induced agglutination of K562 cells” value with K562(S) cells [1] is given as “prevent p31-43 induced agglutination”. For the same substance, in assay [4] (setting [7]), the “expression increase of Py99” value is given as “meaningfully prevents” and the “p42/44 phosphorylation induced by p31-43” value is “meaningfully prevents; also recorded: prevents the increase”. For the same substance, in the assay with ICAM-1 in T84 cells, the “ICAM-1 level in T84 cells” value was “No meaningful increase” and the “ICAM-1 level … to p31-43” value is reported as “ICAM-1 levels similar to cells exposed only to culture medium”.
